According to patent US20230141887A1, “CRYSTAL FORM OF DIAZASPIROPYRAN COMPOUND” (MEDSHINE DISCOVERY INC., priority 2020, published 2023):
Numbering of substitutions follows the chain as printed.

Experiments:
FLT3(K663Q) = biological target: T1, FLT3(K663Q) (Homo sapiens, UniProt P36888, K663Q); format: binding
T1 sequence (P36888 27-993 K663Q): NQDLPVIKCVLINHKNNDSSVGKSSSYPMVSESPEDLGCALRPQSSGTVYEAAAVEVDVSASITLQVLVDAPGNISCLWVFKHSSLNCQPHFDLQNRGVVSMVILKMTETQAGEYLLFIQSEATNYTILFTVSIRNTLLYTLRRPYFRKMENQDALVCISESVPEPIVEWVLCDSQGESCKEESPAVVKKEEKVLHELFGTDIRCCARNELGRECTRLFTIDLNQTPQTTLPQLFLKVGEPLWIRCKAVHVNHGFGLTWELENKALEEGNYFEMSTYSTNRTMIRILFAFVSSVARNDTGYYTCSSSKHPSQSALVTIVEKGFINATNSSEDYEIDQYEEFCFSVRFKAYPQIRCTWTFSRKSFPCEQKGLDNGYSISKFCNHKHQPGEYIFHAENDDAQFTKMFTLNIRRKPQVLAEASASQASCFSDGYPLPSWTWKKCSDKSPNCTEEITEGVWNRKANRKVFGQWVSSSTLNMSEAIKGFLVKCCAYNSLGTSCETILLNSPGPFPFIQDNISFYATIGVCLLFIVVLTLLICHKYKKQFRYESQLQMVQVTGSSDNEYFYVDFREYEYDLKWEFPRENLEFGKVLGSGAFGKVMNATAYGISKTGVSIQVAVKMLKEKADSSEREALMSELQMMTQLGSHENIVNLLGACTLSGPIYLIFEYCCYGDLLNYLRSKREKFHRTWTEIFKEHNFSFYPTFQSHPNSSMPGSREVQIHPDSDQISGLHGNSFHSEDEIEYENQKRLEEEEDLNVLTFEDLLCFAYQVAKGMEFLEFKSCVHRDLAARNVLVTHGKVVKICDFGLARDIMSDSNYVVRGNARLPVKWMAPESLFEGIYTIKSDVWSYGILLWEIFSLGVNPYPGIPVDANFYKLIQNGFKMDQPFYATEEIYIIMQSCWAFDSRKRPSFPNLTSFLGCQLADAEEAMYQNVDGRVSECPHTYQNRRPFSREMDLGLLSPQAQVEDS
Procedure: (§1) The assay was carried out using KINOMEscan™ technology. The assay compounds were stored in 100% DMSO. The assay was carried out by means of 3-fold dilution and 11-point fitting. All compounds used for Kd determination were dispersed by ultrasound, then directly diluted and tested. All reactions were carried out in a 384-well polypropylene plate. Each portion has a final volume of 0.02 ml. The plate was incubated with shaking at room temperature for 1 hour, and then processed. The kinase concentration in the eluent was finally determined by qPCR method. Kd was obtained by fitting.

FLT3(N841I) = biological target: T2, FLT3(N841I) (Homo sapiens, UniProt P36888, N841I); format: binding
T2 sequence (P36888 27-993 N841I): T1 sequence (P36888 27-993 K663Q) with Q637K, N815I
Procedure: as §1

## CCc1nc(C(N)=O)c(Nc2ccc(N3CCC4(CCN(C)CC4)CC3)c(C)c2)nc1NC1CCOCC1.O=C(O)C(F)(F)F
FLT3(K663Q); FLT3(K663Q)
  Kd: 10 nM
FLT3(K663Q); FLT3 (K663Q), ratio of Kd versus compound B
  activity higher than that of the known compound B: 5.9 times
FLT3(N841I)
  Kd: 5.4 nM
